Assay results: the CheMixHub viscosity set
“And” between values parts separate entries of the source, which are not always exact repeats. Equal values may be shown once.

Test: xn = mol fraction of the nth substance listed

O=C1O[C@H]([C@@H](O)CO)C(O)=C1O + O
Conditions | viscosity
293.15 K, 101 kPa, x1 = 0.00359 | 1.078 mPa·s and 1.081 mPa·s and 1.077 mPa·s
293.15 K, 101 kPa, x1 = 0.005375 | 1.124 mPa·s and 1.122 mPa·s and 1.122 mPa·s
293.15 K, 101 kPa, x1 = 0.007156 | 1.162 mPa·s
293.15 K, 101.3 kPa, x1 = 0.0001803 | 1.013 mPa·s
293.15 K, 101.3 kPa, x1 = 0.00036 | 1.021 mPa·s
293.15 K, 101.3 kPa, x1 = 0.0005398 | 1.029 mPa·s
298.15 K, 101 kPa, x1 = 0.000364 | 0.899 mPa·s and 0.8985 mPa·s
298.15 K, 101 kPa, x1 = 0.000657 | 0.904 mPa·s and 0.9039 mPa·s
298.15 K, 101 kPa, x1 = 0.001 | 0.823 mPa·s
298.15 K, 101 kPa, x1 = 0.00125 | 0.916 mPa·s and 0.9161 mPa·s
298.15 K, 101 kPa, x1 = 0.00155 | 0.922 mPa·s and 0.9216 mPa·s
298.15 K, 101 kPa, x1 = 0.001665 | 0.9245 mPa·s
298.15 K, 101 kPa, x1 = 0.001856 | 0.927 mPa·s and 0.9273 mPa·s
298.15 K, 101 kPa, x1 = 0.002776 | 0.9451 mPa·s
298.15 K, 101 kPa, x1 = 0.003 | 0.835 mPa·s
298.15 K, 101 kPa, x1 = 0.005 | 0.847 mPa·s
298.15 K, 101 kPa, x1 = 0.005396 | 0.9979 mPa·s
298.15 K, 101 kPa, x1 = 0.009999 | 1.1 mPa·s
298.15 K, 101.3 kPa, x1 = 0.0001803 | 0.905 mPa·s
298.15 K, 101.3 kPa, x1 = 0.00036 | 0.913 mPa·s
298.15 K, 101.3 kPa, x1 = 0.0005398 | 0.918 mPa·s
303.15 K, 101 kPa, x1 = 0.001798 | 0.8267 mPa·s and 0.825 mPa·s
303.15 K, 101 kPa, x1 = 0.0018 | 0.8248 mPa·s
303.15 K, 101 kPa, x1 = 0.00359 | 0.8564 mPa·s and 0.8524 mPa·s
303.15 K, 101 kPa, x1 = 0.005375 | 0.8897 mPa·s and 0.8876 mPa·s and 0.8876 mPa·s
303.15 K, 101 kPa, x1 = 0.007154 | 0.9213 mPa·s and 0.9197 mPa·s
303.15 K, 101 kPa, x1 = 0.007156 | 0.916 mPa·s
303.15 K, 101.3 kPa, x1 = 0.0001803 | 0.812 mPa·s
303.15 K, 101.3 kPa, x1 = 0.00036 | 0.817 mPa·s
303.15 K, 101.3 kPa, x1 = 0.0005398 | 0.821 mPa·s
308.15 K, 101 kPa, x1 = 0.000364 | 0.724 mPa·s and 0.7239 mPa·s
308.15 K, 101 kPa, x1 = 0.000657 | 0.728 mPa·s and 0.7282 mPa·s
308.15 K, 101 kPa, x1 = 0.0007676 | 0.7308 mPa·s
308.15 K, 101 kPa, x1 = 0.00125 | 0.738 mPa·s and 0.7377 mPa·s
308.15 K, 101 kPa, x1 = 0.00155 | 0.743 mPa·s and 0.7431 mPa·s
308.15 K, 101 kPa, x1 = 0.001665 | 0.7425 mPa·s
308.15 K, 101 kPa, x1 = 0.001856 | 0.748 mPa·s and 0.7477 mPa·s
308.15 K, 101 kPa, x1 = 0.002776 | 0.7609 mPa·s
308.15 K, 101 kPa, x1 = 0.005396 | 0.8018 mPa·s
308.15 K, 101 kPa, x1 = 0.006205 | 0.8139 mPa·s
308.15 K, 101 kPa, x1 = 0.009999 | 0.8791 mPa·s
308.15 K, 101.3 kPa, x1 = 0.0001803 | 0.733 mPa·s
308.15 K, 101.3 kPa, x1 = 0.00036 | 0.738 mPa·s
308.15 K, 101.3 kPa, x1 = 0.0005398 | 0.743 mPa·s
313.15 K, 101 kPa, x1 = 0.001798 | 0.6755 mPa·s and 0.6783 mPa·s
313.15 K, 101 kPa, x1 = 0.0018 | 0.6734 mPa·s
313.15 K, 101 kPa, x1 = 0.00359 | 0.6979 mPa·s
313.15 K, 101 kPa, x1 = 0.005375 | 0.7227 mPa·s and 0.7222 mPa·s
313.15 K, 101 kPa, x1 = 0.007154 | 0.7485 mPa·s and 0.7473 mPa·s
313.15 K, 101 kPa, x1 = 0.007156 | 0.7432 mPa·s
313.15 K, 101.3 kPa, x1 = 0.0001803 | 0.668 mPa·s
313.15 K, 101.3 kPa, x1 = 0.00036 | 0.671 mPa·s
313.15 K, 101.3 kPa, x1 = 0.0005398 | 0.676 mPa·s
318.15 K, 101 kPa, x1 = 0.000364 | 0.6 mPa·s and 0.5998 mPa·s
318.15 K, 101 kPa, x1 = 0.000657 | 0.604 mPa·s and 0.6039 mPa·s
318.15 K, 101 kPa, x1 = 0.0007676 | 0.6078 mPa·s
318.15 K, 101 kPa, x1 = 0.000952 | 0.608 mPa·s and 0.6081 mPa·s
318.15 K, 101 kPa, x1 = 0.00125 | 0.612 mPa·s and 0.6122 mPa·s
318.15 K, 101 kPa, x1 = 0.00155 | 0.616 mPa·s
318.15 K, 101 kPa, x1 = 0.001665 | 0.6147 mPa·s
318.15 K, 101 kPa, x1 = 0.001856 | 0.621 mPa·s
318.15 K, 101 kPa, x1 = 0.002776 | 0.6296 mPa·s
318.15 K, 101 kPa, x1 = 0.006205 | 0.6736 mPa·s
318.15 K, 101 kPa, x1 = 0.009999 | 0.725 mPa·s
323.15 K, 101 kPa, x1 = 0.001798 | 0.5655 mPa·s and 0.5637 mPa·s
323.15 K, 101 kPa, x1 = 0.0018 | 0.5616 mPa·s
323.15 K, 101 kPa, x1 = 0.00359 | 0.5832 mPa·s and 0.5805 mPa·s
323.15 K, 101 kPa, x1 = 0.005375 | 0.6022 mPa·s and 0.6013 mPa·s
323.15 K, 101 kPa, x1 = 0.007154 | 0.6221 mPa·s and 0.6216 mPa·s
323.15 K, 101 kPa, x1 = 0.007156 | 0.6179 mPa·s
